The test system of one series is glioma lines. To be noted: in vitro; cited from earlier work.
The conditions of series [1]: in vivo; cited from earlier work.
Series [2] has as its system 9L. Put plainly: Intracranial local drug delivery by polymer implant in rat glioma model, median survival (Table 1 summary). To be noted: in vivo.
The conditions of series [3]: cited from earlier work.
Series [4] can be described thus: Intracranial local drug delivery by polymer implant in rat glioma model, P98 cells injected (Table 1 summary). The class given is in vivo. As to conditions: p(FAD:SA) 5% load. The source says:
Table 1 is a summary of studies on intracranial local drug delivery in rat glioma models, as described in the following examples.

For series [5], the system named is 9L. Briefly: Clonogenic assay, camptothecin. The class given is cell-based. As to conditions: Rattus norvegicus. As for the experimental part:
(§1) Tumor cell lines. […] The F98 glioma cells were provided by Dr. Joseph Goodman, Department of Neurosurgery, Ohio State University, Columbus, Ohio. The human glioma cell lines U87 and U373 were provided by Dr. O. Michael Colvin, Johns Hopkins University School of Medicine, Baltimore, Md. JH1 is a cell line established from a biopsy specimen from a patient with a pathologically confirmed glioblastoma multiform.
(§2) Clonogenic assay. The sensitivity of each glioma cell line was tested in a clonogenic assay. At confluence, the cells were trypsinized and plated at 400 cells per 60 mm well. After 24 hours, fresh medium containing camptothecin at various concentrations was added. For brief exposure experiments, the camptothecin was removed and replaced with fresh medium after 1 hour; for continuous exposure, medium was left in place for 7 days. At 7 days, all plates were fixed and stained with coomassie brilliant blue (Bio Rad, Richmond, Calif.). Colonies containing more than 50 cells were identified and counted. Treatments were performed in triplicate. Survival was calculated as the number of colonies formed by the treated cells relative to the number of colonies formed by the untreated cells.

For the next series, the system named is F98. Put plainly: Clonogenic assay, camptothecin. In kind it is cell-based. As to conditions: Rattus norvegicus. How it is done: as §1, §2
The next series concerns U373. Put plainly: Clonogenic assay, camptothecin. As to conditions: Homo sapiens, U373 MG. The class given is cell-based. As for the experimental part: as §1, §2
A further series concerns U87. Put plainly: Clonogenic assay, camptothecin. The class given is cell-based, human. As for the experimental part:
as §1, §2

Another series relates to JH1. Briefly: Clonogenic assay, camptothecin. The class given is cell-based. To be noted: Homo sapiens; for IC100: read-out: concentration for total cell kill.
Source text: as §1
Cell culture of freshly biopsied gliomas. Biopsy samples were obtained from the operating room and transported in sterile specimen containers. Specimens were filtered through a 230 μm mesh collector screen (Bellco Glass, Inc., Vineland, N.J.) with use of a glass pestle. The specimen was then centrifuged at 1000 rpm for 10 minutes. The supernatant fraction was discarded and the cell pellet was resuspended in a 1 ml of minimum essential medium (Gibco BRL, Grand Island, N.Y.) with 10% fetal bovine serum, 0.5% L-glutamine, penicillin (base; 80.5 units/ml), and streptomycin (80.5 μg/ml). The suspension was passed through a 25 gauge needle, after which it was recentrifuged at 1000 rpm for 5 minutes. The supernatant fraction was discarded and the pellet was resuspended in 5 ml of medium. This suspension was plated onto T75 culture flasks at various dilutions and incubated at 37° C. The medium was changed approximately every 3 days. When the initial culture reached confluence, the cells were trypsinized and passaged. Sensitivity was assessed by the clonogenic assay below, beginning with the second passage.
as §2

Series [6] concerns F98, 9L, U87, U373, JH1 cell lines. Put plainly: In vitro efficacy of camptothecin on several cell lines (clonogenic assay). In kind it is cell-based. As to conditions: 168 h; rat and established human cell lines, continuous exposure; read-out: LD90 after continuous exposure.
Source text: as §1
Cell culture of freshly biopsied gliomas. Biopsy samples were obtained from the operating room and transported in sterile specimen containers. Specimens were filtered through a 230 μm mesh collector screen (Bellco Glass, Inc., Vineland, N.J.) with use of a glass pestle. The specimen was then centrifuged at 1000 rpm for 10 minutes. The supernatant fraction was discarded and the cell pellet was resuspended in a 1 ml of minimum essential medium (Gibco BRL, Grand Island, N.Y.) with 10% fetal bovine serum, 0.5% L-glutamine, penicillin (base; 80.5 units/ml), and streptomycin (80.5 μg/ml). […] Sensitivity was assessed by the clonogenic assay below, beginning with the second passage.
Clonogenic assay. […] Colonies containing more than 50 cells were identified and counted. […] Survival was calculated as the number of colonies formed by the treated cells relative to the number of colonies formed by the untreated cells.

Another series has as its system topoisomerase I. To be noted: cited from earlier work.
The test system of series [7] is melanoma and advanced gastrointestinal carcinoma. As to conditions: human, in vivo; cited from earlier work.
A further series concerns L1210. To be noted: in vitro; cited from earlier work.
In series [8] the test system is rat Walker 256 carcinosarcoma. As to conditions: in vitro; cited from earlier work.
The conditions of series [9]: sodium salt formulation; cited from earlier work.
Where [10] appears, read: 1 h, read-out: LD90 1 Hour Exposure.
The mark [11] stands for this setting: 168 h, continuous exposure, 7 days, read-out: LD90 Continuous Exposure.

Molecules are shown by their SMILES. “And” between values parts separate entries of the source, which are not always exact repeats. Equal values may be shown once. Read-outs that look alike come from different tables or passages of the source.

Turning to `COc1cccc2c1C(=O)c1c(O)c3c(c(O)c1C2=O)C[C@@](O)(C(=O)CO)C[C@@H]3O[C@H]1C[C@H](N)[C@H](O)[C@H](C)O1` [Adriamycin], in the series on glioma lines, the sensitivity of gliomas result is “highly sensitive”. For the same compound, the cardiac toxicity entry in series [1] is “significant dose related cardiac toxicity”.

Consider `O=NN(CCCl)C(=O)NCCCl` [BCNU, 1,3-bis(2-chloroethyl)-1-nitrosourea], for which, in the series on 9L [2], the “% increase survival” value is 634% and 437%. In addition, the “Median survival in days, Rx group” value with 9L [2] is 80 and 62.3. Also, the “radius from implant within which BCNU is detectable” value in series [3] (21 days after implantation) was at most 3 mm; in series [3] (Day 7), at most 40 mm. The concentration in series [3] (PCPP-SA (20:80), initially, read-out: average concentration in brain) is 8000 µM. Moreover, in series [3] (over time), the “amount of brain exposed to BCNU” value is on record as “decrease after three days”.

Regarding `N.N.O=C([O-])C1(C(=O)[O-])CCC1.[Pt+2]` [Carboplatin], the “% increase survival” value in series [4] (Rx day 5) came to 225%. For the same compound, the “Median survival in days, Rx group” value in series [4] (Rx day 5, 1 × 10^5 cells injected, controls 16, n = 18) came out at 52 days.

As for `CC[C@@]1(O)C(=O)OCc2c1cc1n(c2=O)Cc2cc3ccccc3nc2-1` [camptothecin, 4-ethyl-4-hydroxy-1H-pyrano[3',4':6,7]indolizino[1,2-b] quinoline-3,14(4H,12H)-dione], the IC90 is 1400 nM with 9L [5] (setting [10]); 100 nM with 9L [5] (setting [11]); 1400 nM in the series on F98 (F98, 1 h, read-out: LD90 1 Hour Exposure); 100 nM in the series on F98 (F98, 168 h, continuous exposure, 7 days, read-out: LD90 Continuous Exposure); 300 nM with U373 (setting [10]); 26 nM in the series on U373 (setting [11]). Further, the IC90 with U87 (1 hour exposure, 60 min, read-out: LD90 1 Hour Exposure) was 1400 nM; in the series with U87 (Homo sapiens, U-87 MG, 1 h, 1 hour exposure, read-out: LD90 1 Hour Exposure), 1200 nM; in the series with U87 (Homo sapiens, U-87 MG, 168 h, continuous exposure, 7 days, read-out: LD90 Continuous Exposure), 100 nM; in the series with JH1 (setting [10]), 100 nM; in the series on JH1 (setting [11]) it was 26 nM; in series [6] it was at most 100 nM. Moreover, the figures for the IC100 in the series with JH1 (1-hour exposure) and in the series with JH1 (continuous exposure) were 0.14 µM and 0.03 µM, respectively. For the same compound, in the series on topoisomerase I, the “inhibition of topoisomerase I” value is recorded as “irreversibly inhibiting”. The systemic toxicity result in series [7] is recorded as “unexpectedly severe systemic toxicity”. The tumoral responses result in [7] is listed as “poor tumoral responses”. The cytotoxic anti-tumor activity entry (in the series on L1210; in series [8]) was “strong cytotoxic anti-tumor activity” throughout. The protein binding result in series [9] is given as “strongly protein-bound”.

In the case of `CN(C)c1ccc(O)c2c1C[C@H]1C[C@H]3[C@H](N(C)C)C(O)=C(C(N)=O)C(=O)[C@@]3(O)C(O)=C1C2=O` [minocycline], the “% increase survival > no Rx” value in the series with 9L [2] worked out at 330%. Also, the “% increase survival > ip BCNU” value in the series with 9L [2] (ip) amounted to 93%.

The record behind these values is patent publication USRE37410E, “Controlled local delivery of chemotherapeutic agents for treating solid tumors” (priority 1999, dated 2001).
